# Data reported in patent US20160310481A1, “LAQUINIMOD FOR TREATMENT OF CANNABINOID RECEPTOR TYPE 1(CB1) MEDIATED DISORDERS” (Teva Pharmaceutical Industries, Ltd., priority 2012, published 2016).
# Read-outs that look alike come from different tables or passages of the source.
# Tests used:
# [1] = system: glutamatergic transmission in control striatal neurons; experiment: Bath application on corticostriatal slices of wild type mice: sEPSCs (basal glutamatergic transmission); type: cell-based
# cannabinoid CB1 receptor = cannabinoid CB1 receptor (Mus musculus, UniProt P47746); conditions: HU210 1 μM
# Description: Recordings were performed between 25 and 35 dpi. Mice were killed by cervical dislocation under halothane anaesthesia, and corticostriatal coronal slices (200 μm) were prepared from fresh tissue blocks of the brain with the use of a vibratome (Centonze et al., 2007, 2009; Rossi et al., 2010a,b). A single slice was then transferred to a recording chamber and submerged in a continuously flowing artificial CSF (ACSF) (34° C., 2-3 ml/min) gassed with 95% O2-5% CO2. The composition of the control ACSF was (in mM): 126 NaCl, 2.5 KCl, 1.2 MgCl2, 1.2 NaH2PO4, 2.4 CaCl2, 11 Glucose, 25 NaHCO3. Recording pipettes were advanced towards individual striatal cells in the slice under positive pressure and visual control (WinVision 2000, Delta Sistemi, Italy) and, on contact, tight GΩ seals were made by applying negative pressure. The membrane patch was then ruptured by suction and membrane current and potential monitored using an Axopatch 1D patch clamp amplifier (Axon Instruments, Foster City, Calif., USA). Whole-cell access resistances measured in voltage clamp were in the range of 5-20 MΩ. Whole-cell patch clamp recordings were made with borosilicate glass pipettes (1.8 mm o.d.; 2-3 MΩ), in voltage-clamp mode, at the holding potential (HP) of −80 mV. […] Synaptic events were stored by using P-CLAMP (Axon Instruments) and analyzed off line on a personal computer with Mini Analysis 5.1 (Synaptosoft, Leonia, N.J., USA) software. […] Offline analysis was performed on spontaneous and miniature synaptic events recorded during fixed time epochs (3-5 min, 3-6 samplings), sampled every 5 or 10 minutes. […]
# For data presented as mean ±SE, n indicates the number of cells. One to six cells per animal were recorded. […] Multiple comparisons were analysed by one-way ANOVA followed by Tukey's HSD test. Comparisons between two groups were analysed by paired or unpaired Student's t-test. […]
# EAE mice = experiment: EAE induction and disease evaluation, preventive daily s.c. LQ treatment; type: in vivo, C57BL/6 mice; conditions: preventive treatment 0-26 dpi, daily s.c. 1-25 mg/kg
# Description: Female C57BL/6 mice at 6-8 weeks of age were purchased from Charles River (Calco, Milan, Italy) and housed in pathogen-free conditions. All procedures involving animals were performed according to the guidelines of the San Raffaele Scientific Institute Institutional Animal Care and Use Committee.
# EAE was induced by immunization with 3 subcutaneous injection of 100 μl each, containing a total of 200 μg of myelin oligodendrocyte glycoprotein (MOG) peptide 35-55 (Multiple Peptide System) in incomplete Freund's adjuvant and 8 mg/ml of Mycobacterium tuberculosis (strain H37Ra; Difco). Pertussis toxin (Sigma) (500 ng) was injected on the day of the immunization and again two days later. Body weight and clinical score (0=healthy; 1=limp tail; 2=ataxia and/or paresis of hindlimbs; 3=paralysis of hindlimbs and/or paresis of forelimbs; 4=tetraparalysis; 5=moribund or death) were recorded daily.
# EAE mice were treated once daily by subcutaneous (s.c.) injection of LQ (supplied by Teva Pharmaceutical Industries, Netanya, Israel) (thereafter referred as LQ-EAE). LQ was administered at different doses (from 1 to 25 mg/kg) starting the same day of immunization up to 26 days post immunization (d.p.i.). Sham treated EAE mice (thereafter referred as untreated-EAE) and healthy control mice (thereafter referred as HC) were used as controls. […]
# spinal cord of EAE mice = experiment: Histological evaluation of spinal cord of EAE mice; type: in vivo, C57BL/6 mice
# Description: At least 5 mice per group were transcardially perfused through the left cardiac ventricle with saline, plus EDTA 0.5 M for 5-10 min followed by fixation with cold 4% paraformaldehyde (PFA) (Sigma, St Louis, Mo.) in 0.1 M phosphate buffer (pH 7.4). Subsequently, spinal cords and brains were carefully dissected out and post-fixed in 4% PFA for 3-4 h and processed for paraffin embedding. The quantification of neurological damage was performed on 5 µm paraffin CNS sections obtained from HC, LQ-EAE mice, and untreated-EAE mice. Three different staining were used to detect inflammatory infiltrates (H&E), demyelination (Luxol fast blue) and axonal damage (Bielshowsky). Imunohistochemistry for CD3 (pan-T cell marker, Serotec Ltd, Oxford, UK), and BS-I isolectin B4 (biotinilated from Sigma, St Louis, Mo.) was performed to investigate T cells and macrophages within the inflammatory cellular infiltrates, respectively. […] Neuropathological findings were quantified on an average of 18-20 complete cross-sections of spinal cord per mouse taken at 8 different levels of the spinal cord. The number of perivascular inflammatory infiltrates were calculated and expressed as the numbers of inflammatory infiltrates per mm^2, demyelinated areas and axonal loss were expressed as percentage of damaged area per mm2. The number of T cells and macrophages lining within the subarachnoid space or infiltrating the CNS parenchyma was calculated and expressed as the number of cells per mm2. An Olympus microscope for the acquisitions of pictures was used. Statistical analysis was performed using the unpaired Student's t-test.
# [2] = system: striatal glutamatergic transmission; experiment: Whole-cell patch clamp of striatal neurons from EAE mice: glutamate-mediated sEPSCs; type: in vivo; conditions: LQ-EAE mice 25 mg/kg, n=20; untreated-EAE 4.0±0.2, HC 2.7±0.2
# [3] = system: GABAergic transmission in control striatal neurons; experiment: Bath application on corticostriatal slices of wild type mice: sIPSCs (basal GABAergic transmission); type: cell-based
# rat model of ADHD = experiment: Rat model of ADHD; type: in vivo; conditions: compared to control rats
# Description: Laqunimod is tested in a rat model of ADHD.
# DAT-CI mice = experiment: Mouse model of ADHD (DAT-CI mice); type: in vivo
# Source text: DAT cocaine-insensitive (DAT-CI) mice have a triple point-mutation in the cocaine-binding site of the dopamine […] (DAT) gene. The behavior of DAT-CI mice mimics human ADHD behavior. As previously described, the sensitivity of CB1 receptors controlling GABA-mediated synaptic currents in the striatum of DAT-CI mice was completely lost. ([…] et al., 2011).
# [4] = system: human subjects diagnosed with ADHD; experiment: Human ADHD trial; type: in vivo; conditions: compared to the control group
# Description: Laquinimod is administered to human subjects diagnosed with ADHD.
# [5] = LQ-EAE vs control, dose dependent
# [6] = LQ 1 μM, 12 minutes, compared to pre-drug values, first mention
# [7] = LQ 1 μM bath application, control neurons
# [8] = LQ 1 μM, 12 minutes, control neurons, compared to pre-drug values, second mention
# Sequence of cannabinoid CB1 receptor (P47746 whole entry): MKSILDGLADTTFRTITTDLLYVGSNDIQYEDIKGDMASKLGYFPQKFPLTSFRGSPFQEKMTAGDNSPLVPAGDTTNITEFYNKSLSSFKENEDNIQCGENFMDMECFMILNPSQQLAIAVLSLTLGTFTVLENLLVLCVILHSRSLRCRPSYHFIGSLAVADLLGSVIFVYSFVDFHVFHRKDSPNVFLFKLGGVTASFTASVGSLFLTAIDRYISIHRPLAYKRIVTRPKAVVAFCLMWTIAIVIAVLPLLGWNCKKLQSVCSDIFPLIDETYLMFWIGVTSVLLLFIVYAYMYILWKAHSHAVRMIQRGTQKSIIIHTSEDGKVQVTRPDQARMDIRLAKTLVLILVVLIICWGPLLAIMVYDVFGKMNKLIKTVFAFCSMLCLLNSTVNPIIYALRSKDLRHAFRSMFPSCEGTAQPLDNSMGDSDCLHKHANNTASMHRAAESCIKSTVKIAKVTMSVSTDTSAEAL
smiles,measurement,setting,value
N#Cc1cc2[nH]c(=O)c(=O)[nH]c2cc1[N+](=O)[O-] [CNQX],blockade of sEPSCs,"[1]; recorded in the presence of LQ, n=5, CNQX 10 μM",fully blocked
CCCCCCC(C)(C)c1cc(O)c2c(c1)OC(C)(C)[C@@H]1CC=C(CO)C[C@@H]21 [HU210],"sIPSC frequency during HU210, respect to pre-drug values","cannabinoid CB1 receptor; control slices, 10 min, n=8",76±3%
same,"sIPSC frequency during HU210, respect to pre-drug values","cannabinoid CB1 receptor; striatal neurons from untreated EAE mice, n=10",101±3%
"CCN(C(=O)c1c(O)c2c(Cl)cccc2n(C)c1=O)c1ccccc1 [LQ, N-ethyl-N-phenyl-1,2-dihydro-4-hydroxy-5-chloro-1-methyl-2-oxoquinoline-3-carboxamide]",effect on EAE clinical course,EAE mice,significantly suppresses EAE in a dose-dependent manner
same,Demyelination,spinal cord of EAE mice; [5],reduced
same,axonal loss,spinal cord of EAE mice; [5],reduced
same,number of T lymphocytes (CD3+) in cellular infiltrates,spinal cord of EAE mice; LQ-EAE vs untreated-EAE mice,diminished number
same,number of microglia/macrophages (Isolectin B4+) in cellular infiltrates,spinal cord of EAE mice; LQ-EAE vs untreated-EAE mice,diminished number
same,numbers of infiltrates within spinal cord sections,spinal cord of EAE mice; LQ-EAE vs untreated-EAE mice,reduction in numbers of infiltrates
same,frequency of sEPSCs,[2],3.4±0.4 Hz
same,amplitude of sIPSCs,[3]; LQ 1 μM bath application,failed to alter
same,frequency of sIPSCs,[3]; LQ 1 μM bath application,failed to alter
same,sIPSC decay time,[3]; [6],98±3%
same,sIPSC rise time,[3]; [6],101±2%
same,amplitude of sEPSCs,[1]; [7],failed to alter
same,frequency of sEPSCs,[1]; [7],failed to alter
same,sIPSC decay time,[1]; [8],101±2%
same,sIPSC rise time,[1]; [8],99±1%
same,sEPSC amplitude,"[1]; LQ 10-30 μM bath application, control neurons, n=10",reducing sEPSC amplitude
same,"frequency of sEPSCs, respect to pre-drug values","[1]; highest concentration of LQ, n=7",83±2.7%
same,result in rat model of ADHD,rat model of ADHD,positive results
same,sensitivity of CB1 receptors to CB1 receptor agonist HU210,DAT-CI mice; DAT-CI mice,restored sensitivity
same,locomotor activity,DAT-CI mice; DAT-CI mice compared to control mice,decreased locomotor activity
same,result in human ADHD subjects,[4],"alleviation of inattention, hyperactivity or impulsivity"
same,"sIPSC frequency during HU210, respect to pre-drug values","cannabinoid CB1 receptor; striatal neurons from LQ-EAE mice (25 mg/kg), n=10",75±3%
